Test results from patent publication US12473290B2, “Imidazopyridazine compounds useful as modulators of IL-12, IL-23 and/or IFN alpha responses” (BRISTOL-MYERS SQUIBB COMPANY, priority 2019, dated 2025).

What was measured:
[1] = test system: IFNα Kit225 Reporter (Kit225 T cells with a stably-integrated STAT-dependent luciferase reporter, stimulated with IFNα); assay: Kit225 T Cell Assay, IFNα-stimulated STAT-dependent luciferase reporter; assay type: cell-based; conditions: 200 U/mL human recombinant IFNα, 5-6 hours, luciferase expression
Procedure: (§1) Kit225 T cells with a stably-integrated STAT-dependent luciferase reporter were plated in RPMI (Gibco) containing 10% heat-inactivated FBS (Gibco) and 100 U/mL PenStrep (Gibco). The cells were then stimulated with either 20 ng/mL human recombinant IL-23 or 200 U/mL human recombinant IFNα (PBL InterferonSource) for 5-6 hours. Luciferase expression was measured using the STEADY-GLO® Luciferase Assay System (Promega) according to the manufacturer's instructions. Inhibition data were calculated by comparison to no inhibitor control wells for 0% inhibition and non-stimulated control wells for 100% inhibition. Dose response curves were generated to determine the concentration required to inhibit 50% of cellular response (IC50) as derived by non-linear regression analysis.

[2] = Kit225 T Cell Assay, IL-23-stimulated STAT-dependent luciferase reporter; assay type: cell-based; conditions: Kit225 T cells, 20 ng/mL human recombinant IL-23, 5-6 hours, luciferase expression
Procedure: as §1

| Structure (SMILES) | IC50 [1] [nM] | IC50 [2] [nM] |
| --- | --- | --- |
| N#Cc1cnc2c(Nc3ccc(C(=O)N4CCCC4C(F)(F)F)c(OCC(F)F)n3)cc(NC3CCOCC3)nn12 (stereo not shown) [Example 49, 8-{[6-(2,2-difluoroethoxy)-5-[2-(trifluoromethyl)pyrrolidine-1-carbonyl]pyridin-2-yl]amino}-6-[(oxan-4-yl)amino]imidazo[1,2-b]pyridazine-3-carbonitrile] | 220 | 160 |
| CC(C)(C)NC(=O)c1ccc(Nc2cc(NCC3CC3)nn3c(C#N)cnc23)nc1 [Example 52, N-tert-butyl-6-({3-cyano-6-[(cyclopropylmethyl)amino]imidazo[1,2-b]pyridazin-8-yl}amino)pyridine-3-carboxamide] | 80 | 140 |
| CC(=O)NCc1ccc(-c2cccc(Nc3cc(NC4CCOCC4)nn4c(C#N)cnc34)n2)cc1 [Example 50, N-({4-[6-({3-cyano-6-[(oxan-4-yl)amino]imidazo[1,2-b]pyridazin-8-yl}amino)pyridin-2-yl]phenyl}methyl)acetamide] | 760 | 1100 |
| N#Cc1cnc2c(Nc3cccc(NC(=O)c4ccccc4)n3)cc(N[C@@H]3CCCC[C@H]3O)nn12 [Example 10, N-{6-[(3-cyano-6-{[(1R,2R)-2-hydroxycyclohexyl]amino}imidazo[1,2-b]pyridazin-8-yl)amino]pyridin-2-yl}benzamide] | 270 | 150 |
| CS(=O)(=O)N1CCN(c2cccc(Nc3cc(N[C@@H]4CCCC[C@H]4O)nn4c(C#N)cnc34)n2)CC1 [Example 63, 6-{[(1R,2R)-2-hydroxycyclohexyl]amino}-8-{[6-(4-methanesulfonylpiperazin-1-yl)pyridin-2-yl]amino}imidazo[1,2-b]pyridazine-3-carbonitrile] | 550 | 110 |
| N#Cc1cnc2c(Nc3cccc(-n4cccn4)n3)cc(N[C@@H]3CCCC[C@H]3O)nn12 [Example 61, 6-{[(1R,2R)-2-hydroxycyclohexyl]amino}-8-{[6-(1H-pyrazol-1-yl)pyridin-2-yl]amino}imidazo[1,2-b]pyridazine-3-carbonitrile] | 450 | 940 |
| N#Cc1cnc2c(Nc3cccc(N4CCOCC4)n3)cc(N[C@@H]3CCCC[C@H]3O)nn12 [Example 65, 6-{[(1R,2R)-2-hydroxycyclohexyl]amino}-8-{[6-(morpholin-4-yl)pyridin-2-yl]amino}imidazo[1,2-b]pyridazine-3-carbonitrile] | 110 | 550 |
| N#Cc1cnc2c(Nc3ccc(C(=O)N4C[C@H]5CC[C@@H]4C5)c(OCC(F)F)n3)cc(N[C@@H]3CCCC[C@H]3O)nn12 [Example 34, 8-({5-[(1R,4S)-2-azabicyclo[2.2.1]heptane-2-carbonyl]-6-(2,2-difluoroethoxy)pyridin-2-yl}amino)-6-{[(1R,2R)-2-hydroxycyclohexyl]amino}imidazo[1,2-b]pyridazine-3-carbonitrile] | 580 | 430 |
| N#Cc1cnc2c(Nc3ccc4c(C(F)(F)F)cc(C(F)(F)F)nc4n3)cc(NC34CC5CC(O)(CC(O)(C5)C3)C4)nn12 [Example 19, 8-{[5,7-bis(trifluoromethyl)-1,8-naphthyridin-2-yl]amino}-6-[(3,5-dihydroxyadamantan-1-yl)amino]imidazo[1,2-b]pyridazine-3-carbonitrile] | 810 | 590 |
| N#Cc1cnc2c(Nc3cccc(N)n3)cc(N[C@@H]3CCCC[C@H]3O)nn12 [Example 66, 8-[(6-aminopyridin-2-yl)amino]-6-{[(1R,2R)-2-hydroxycyclohexyl]amino}imidazo[1,2-b]pyridazine-3-carbonitrile] | 340 | 710 |
| CC(C)(CC(N)=O)NC(=O)c1cccc(Nc2cc(NC34CC5CC(CC(O)(C5)C3)C4)nn3c(C#N)cnc23)n1 [Example 42, 3-{[6-({3-cyano-6-[(3-hydroxyadamantan-1-yl)amino]imidazo[1,2-b]pyridazin-8-yl}amino)pyridin-2-yl]formamido}-3-methylbutanamide] | 640 | 710 |
| N#Cc1cnc2c(Nc3ccc(C(=O)NCC4CC4)cn3)cc(NCC3CC3)nn12 [Example 51, 6-({3-cyano-6-[(cyclopropylmethyl)amino]imidazo[1,2-b]pyridazin-8-yl}amino)-N-(cyclopropylmethyl)pyridine-3-carboxamide] | 160 | 150 |
| CC1(C(=O)Nc2cccc(Nc3cc(N[C@@H]4CCCC[C@H]4O)nn4c(C#N)cnc34)n2)CC1 [Example 8, N-{6-[(3-cyano-6-{[(1R,2R)-2-hydroxycyclohexyl]amino}imidazo[1,2-b]pyridazin-8-yl)amino]pyridin-2-yl}-1-methylcyclopropane-1-carboxamide] | 280 | 490 |
| CN(C)c1nc(Nc2cc(N[C@@H]3CCCC[C@H]3O)nn3c(C#N)cnc23)ccc1C(=O)N1CCCC1 [Example 3, 8-{[6-(dimethylamino)-5-(pyrrolidine-1-carbonyl)pyridin-2-yl]amino}-6-{[(1R,2R)-2-hydroxycyclohexyl]amino}imidazo[1,2-b]pyridazine-3-carbonitrile] | 190 | 140 |
| N#Cc1cnc2c(Nc3cccc(N4C(=O)NC5(CCCCC5)C4=O)n3)cc(N[C@@H]3CCCC[C@H]3O)nn12 [Example 58, 8-[(6-{2,4-dioxo-1,3-diazaspiro[4.5]decan-3-yl}pyridin-2-yl)amino]-6-{[(1R,2R)-2-hydroxycyclohexyl]amino}imidazo[1,2-b]pyridazine-3-carbonitrile] | 810 | 550 |
| N#Cc1cnc2c(Nc3ccc(C(=O)N4CCCC4)c(N4CCCC4)n3)cc(N[C@H]3CCCC[C@@H]3O)nn12 [Example 14, 6-{[(1S,2S)-2-hydroxycyclohexyl]amino}-8-{[6-(pyrrolidin-1-yl)-5-(pyrrolidine-1-carbonyl)pyridin-2-yl]amino}imidazo[1,2-b]pyridazine-3-carbonitrile] | 490 | 660 |
| CC(=O)N1CCN(c2cccc(Nc3cc(N[C@@H]4CCCC[C@H]4O)nn4c(C#N)cnc34)n2)CC1 [Example 64, 8-{[6-(4-acetylpiperazin-1-yl)pyridin-2-yl]amino}-6-{[(1R,2R)-2-hydroxycyclohexyl]amino}imidazo[1,2-b]pyridazine-3-carbonitrile] | 500 | 350 |
| CC(C)C(=O)N1CCN(c2cccc(Nc3cc(N[C@@H]4CCCC[C@H]4O)nn4c(C#N)cnc34)n2)CC1 [Example 60, 6-{[(1R,2R)-2-hydroxycyclohexyl]amino}-8-({6-[4-(2-methylpropanoyl)piperazin-1-yl]pyridin-2-yl}amino)imidazo[1,2-b]pyridazine-3-carbonitrile] | 370 | 350 |
| CC(C)(C)NC(=O)c1cccc(Nc2cc(NC34CC5CC(CC(O)(C5)C3)C4)nn3c(C#N)cnc23)n1 [Example 17, N-tert-butyl-6-({3-cyano-6-[(3-hydroxyadamantan-1-yl)amino]imidazo[1,2-b]pyridazin-8-yl}amino)pyridine-2-carboxamide] | 490 | 420 |
| CC(C)(O)C(=O)Nc1cccc(Nc2cc(N[C@@H]3CCCC[C@H]3O)nn3c(C#N)cnc23)n1 [Example 9, N-{6-[(3-cyano-6-{[(1R,2R)-2-hydroxycyclohexyl]amino}imidazo[1,2-b]pyridazin-8-yl)amino]pyridin-2-yl}-2-hydroxy-2-methylpropanamide] | 390 | 220 |
| CN(C)C1CCN(C(=O)c2ccc(Nc3cc(NC4CCOCC4)nn4c(C#N)cnc34)nc2OCC(F)F)C1 (stereo not shown) [Example 48, 8-{[6-(2,2-difluoroethoxy)-5-[3-(dimethylamino)pyrrolidine-1-carbonyl]pyridin-2-yl]amino}-6-[(oxan-4-yl)amino]imidazo[1,2-b]pyridazine-3-carbonitrile] | 340 | 740 |
| N#Cc1cnc2c(Nc3cccc(N4CCN(CCO)CC4)n3)cc(N[C@@H]3CCCC[C@H]3O)nn12 [Example 55, 6-{[(1R,2R)-2-hydroxycyclohexyl]amino}-8-({6-[4-(2-hydroxyethyl)piperazin-1-yl]pyridin-2-yl}amino)imidazo[1,2-b]pyridazine-3-carbonitrile] | 620 | 530 |
| N#Cc1cnc2c(Nc3ccc(C(=O)N4CC[C@@H](C#N)C4)c(OCC(F)F)n3)cc(NC3CCOCC3)nn12 [Example 47, (3R)-1-[6-({3-cyano-6-[(oxan-4-yl)amino]imidazo[1,2-b]pyridazin-8-yl}amino)-2-(2,2-difluoroethoxy)pyridine-3-carbonyl]pyrrolidine-3-carbonitrile] | 160 | 340 |
| CS(=O)(=O)NCc1ccc(-c2cccc(Nc3cc(N[C@@H]4CCCC[C@H]4O)nn4c(C#N)cnc34)n2)cc1 [Example 38, N-[(4-{6-[(3-cyano-6-{[(1R,2R)-2-hydroxycyclohexyl]amino}imidazo[1,2-b]pyridazin-8-yl)amino]pyridin-2-yl}phenyl)methyl]methanesulfonamide] | 760 | 890 |
| N#Cc1cnc2c(Nc3cccc(N4CCOCC4=O)n3)cc(N[C@@H]3CCCC[C@H]3O)nn12 [Example 56, 6-{[(1R,2R)-2-hydroxycyclohexyl]amino}-8-{[6-(3-oxomorpholin-4-yl)pyridin-2-yl]amino}imidazo[1,2-b]pyridazine-3-carbonitrile] | 380 | 430 |
| COc1cccc2ccc(Nc3cc(NC45CC6CC(CC(O)(C6)C4)C5)nn4c(C#N)cnc34)nc12 [Example 18, 6-[(3-hydroxyadamantan-1-yl)amino]-8-[(8-methoxyquinolin-2-yl)amino]imidazo[1,2-b]pyridazine-3-carbonitrile] | 460 | 190 |
